# Test results as given in patent publication US11098040B2, “Compounds and methods of use” (Ferro Therapeutics, Inc., priority 2018, dated 2021).
# Columns and labels:
# SK-OV-3 = experiment: Cell viability assay (CellTiter Glo), ovarian cancer cell line SK-OV-3; assay type: cell-based; settings: Homo sapiens, 96 hours
# Protocol: (§1) Cell viability assay was performed to assess the potency of the compounds in human cancer cell lines KP4 (pancreatic ductal adenocarcinoma), MiaPaCa-2 (pancreatic carcinoma), AsPC-1 (pancreatic adenocarcinoma, ascites), 143B (osteosarcoma), and SJSA-1 (osteosarcoma). Selected compounds were also assayed in a human breast epithelial cell line MCF-10A, a nontumorigenic cell line as a control to assess differential activity. Cells at a density of 500-5,000 cells/well were seeded in 96-well plates and incubated at 37° C. overnight. A series of 9 different concentrations of compound stocks (500×) were created by 3-fold serial dilution in DMSO. These compounds were further diluted in culture media and then added to cells so that the final DMSO concentration was equal to 0.25% or less. After 96 hours of incubation, 50 μL of CellTiter Glo reagent (Promega) was added to each well and luminescence was measured after 10 minutes using EnVision (PerkinElmer). Compounds titrated from top concentration of up to 30 μM. The select compounds were tested initially from 30 μM as the top concentration in duplicates (range of 4.6 nM-30 μM). […] Luminescence from cells treated with DMSO alone was set as Max and % of inhibition was calculated as follows: Inhibition %=(Max-Sample value)/Max*100. Data was analyzed using XL-fit software (ID Business Solutions Ltd.). IC50, relative IC50, or % of top inhibition was calculated.
# (§2) A group of selected analogs were further profiled in cell viability assays described above in multiple additional cancer cell lines, including lung cancer, melanoma, hepatocarcinoma, pancreatic cancer, leukemia, lymphoma, ovarian cancer, breast cancer, colon cancer, and sarcoma cell lines. Initial cell seeding numbers were adjusted for each cell line. Typically, 500-5000 cells/well for adherent cells and 5000-10000/well for suspension cells were seeded in 96-well plates.
# HCC1954 = experiment: Cell viability assay (CellTiter Glo), breast cancer cell line HCC1954; assay type: cell-based; settings: Homo sapiens, 96 hours
# Protocol: as §1, §2
# MV-4-1 = experiment: Cell viability assay (CellTiter Glo), leukemia cell line MV-4-1; assay type: cell-based; settings: 96 hours
# Protocol: as §1, §2
# (§3) The results of the assay in the leukemia cell lines are given in Table 16a for MV-4-1 and Table 16b for HL-60 and Kasumi-1.
# MiaPaCa-2 = experiment: Cell viability assay (CellTiter Glo), pancreatic carcinoma MiaPaCa-2; assay type: cell-based; settings: Homo sapiens, MIA PaCa-2; pancreatic carcinoma, 96 hours, CellTiter Glo; read-out: IC50 MiaPaCa-2
# Method in brief: (§4)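 MiaPaCa-2 and AsPC-1 cells were seeded overnight at 37 °C and exposed for 96 h to 9-point, 3-fold dilutions from up to 30 μM (final DMSO ≤0.25%). CellTiter Glo luminescence was read, and inhibition was calculated relative to DMSO-only cells. IC50, relative IC50 or % top inhibition was derived.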
# HL-60 = experiment: Cell viability assay (CellTiter Glo), leukemia cell line HL-60; assay type: cell-based; settings: Homo sapiens, 96 hours
# Protocol: as §1, §2, §3
# HT-1080 luc2 = experiment: Cell viability assay (CellTiter Glo), fibrosarcoma HT-1080 luc2; assay type: cell-based; settings: Homo sapiens, fibrosarcoma expressing a luciferase gene, 96 hours, CellTiter Glo, read-out: IC50 HT-1080 luc2
# Protocol: as §1, §2
# The results of the assay in sarcoma cell lines are given in Table 21a for HT-1080 luc2 (fibrosarcoma expressing a luciferase gene), Table 21b for 143B (osteosarcoma), and Table 21c for SJSA-1 (osteosarcoma).
# [1] = mouse, in vivo, ip, 15 mg/kg
# Protocol: (§6) Test compounds were dissolved either in 20% (w/w) sulfobutylether-β-cyclodextrin (SBECD) pH 3-7 aqueous solution, or 5% DMSO/(30-50%) PEG400/(65-45%) water. Test compound dosing solutions were administered intraperitoneally to Balb/c nude male mice. Blood samples were collected at various time points with EDTA-K2 as anti-coagulant on ice, and centrifuged to obtain plasma samples. The plasma samples were stored at −20° C. until analysis.
# (§7) Into 10 μL of test compound plasma samples were added 2 μL DMSO then 200 μL of 5 ng/mL internal standard (VTSD) (Terfenadine) in MeOH/acetonitrile. The mixture was vortexed for 1 minute and centrifuged at 4000 rpm for 15 minutes. Calibration standards were prepared by spiking known amount of test compounds into blank plasma samples. The supernatant solution was diluted 5 times with Acetonitrile/H2O (with 0.1% formic acid, 1:1, v/v), and this is the solution for LC-MS/MS analysis. The limit of quantification (LOQ) was 1 ng/mL.
# (§8) Typical HPLC mobile phases were mobile phase of 5 mM NH4OAc (with 0.05% formic acid); and mobile phase B of acetonitrile (with 0.1% formic acid). The HPLC column was Kinetex C18 (30 mm×3.00 mm). Mass spectrometer was tuned for each compound in the Multiple Reaction Monitoring (MRM) scanning mode and in the electrospray ionization mode. The lower limit of quantification was 1-10 ng.
# (§9) In this study, K601 (RSL3) was formulated in 5% DMSO/30% PEG 400/65% water at 1.5 mg/mL. The volume of injection via intraperitoneal route was 10 mL/kg for a dose of 15 mg/kg. […] The limit of quantification (LOQ) was 1 ng/mL.
# (§10) In this study, the compound was formulated in 20% (w/w) sulfobutylether-β-cyclodextrin (SBECD), pH 5 aqueous solution at 1.5 mg/mL. The volume of injection via intraperitoneal route was 10 mL/kg for a dose of 15 mg/kg. The concentration of test compounds in plasma were analyzed by LC-MS with the method described above. The limit of quantification was 1 ng/mL.
# (§11) It was formulated in 5% DMSO/50% PEG400/45% Water pH adjusted to 4 with HCl as an aqueous solution at 1.0 mg/mL. The volume of injection via intraperitoneal route was 15 mL/kg for a dose of 15 mg/kg. The concentration of test compounds in plasma were analyzed by LC-MS with the method described above. The limit of quantification was 1 ng/mL. […] The limit of quantification was 1 ng/mL.
# (§12) Compounds 24 and 28 were formulated in 20% (w/w) sulfobutylether-β-cyclodextrin (SBECD) with pH 3 and pH 4, respectively, as an aqueous solution at 1.0 mg/mL. Compound 67 was in 5% DMSO/50% PEG 400/45% water pH 4 (adjusted with 12 N HCl) aqueous solution at 1.0 mg/mL. The injection volume via intraperitoneal route was 10 mL/kg for a dose of 15 mg/kg. The concentration of test compounds in plasma were analyzed by LC-MS with the method described above. The limit of quantification was 1 ng/mL.
# Huh7 = experiment: Cell viability assay (CellTiter Glo), hepatocellular carcinoma Huh7; assay type: cell-based; settings: Homo sapiens, Huh-7, 96 hours
# Protocol: as §1, §2
# HT29 = experiment: Cell viability assay (CellTiter Glo), colon cancer cell line HT29; assay type: cell-based; settings: Homo sapiens, HT-29, 96 hours
# Protocol: as §1, §2
# H1299 = experiment: Cell viability assay (CellTiter Glo), lung cancer cell line H1299; assay type: cell-based; settings: Homo sapiens, NCI-H1299, 96 hours
# Protocol: as §1, §2
# H2228 = experiment: Cell viability assay (CellTiter Glo), lung cancer cell line H2228; assay type: cell-based; settings: Homo sapiens, NCI-H2228; lung cancer cell line, 96 hours, CellTiter Glo; read-out: IC50 H2228
# Protocol: as §1, §2
# SJSA-1 = experiment: Cell viability assay (CellTiter Glo), osteosarcoma SJSA-1; assay type: cell-based; settings: Homo sapiens, 96 hours
# Method in brief: (§5)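 Cells seeded at 500-5,000/well overnight, then 96 h exposure to 9-point 3-fold dilutions from up to 30 μM (4.6 nM-30 μM), final DMSO ≤0.25%. Viability by CellTiter Glo luminescence; inhibition relative to DMSO-only cells, yielding IC50, relative IC50 or % top inhibition.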
# SW480 = experiment: Cell viability assay (CellTiter Glo), colon cancer cell line SW480; assay type: cell-based; settings: Homo sapiens, 96 hours
# Protocol: as §1, §2
# MDA-MB-435S = experiment: Cell viability assay (CellTiter Glo), melanoma cell line MDA-MB-435S; assay type: cell-based; settings: Homo sapiens, 96 hours
# Protocol: as §1, §2
# PANC1 = experiment: Cell viability assay (CellTiter Glo), pancreatic cell line PANC1; assay type: cell-based; settings: Homo sapiens, PANC-1, 96 hours
# Protocol: as §1, §2
# The results of the assay in the pancreatic cell lines are given in Table 15a for PANC1, Table 15b for MiaPaCa-2, and Table 15c for AsPC-1.
# Kasumi-1 = experiment: Cell viability assay (CellTiter Glo), leukemia cell line Kasumi-1; assay type: cell-based; settings: Homo sapiens, 96 hours
# Protocol: as §1, §2, §3
# 143B = experiment: Cell viability assay (CellTiter Glo), osteosarcoma 143B; assay type: cell-based; settings: Homo sapiens, 96 h, osteosarcoma, 96 hours, CellTiter Glo, read-out: IC50 143B
# Method in brief: as §5
# in vivo = settings: male, Balb/c nude, mouse, ip, 15 mg/kg, Calculated Concentration
# Protocol: as §6, §7, §8, §9, §10, §11, §12
# Raji = experiment: Cell viability assay (CellTiter Glo), lymphoma cell line Raji; assay type: cell-based; settings: Homo sapiens, 96 hours
# Protocol: as §1, §2
# AsPC-1 = experiment: Cell viability assay (CellTiter Glo), pancreatic adenocarcinoma AsPC-1; assay type: cell-based; settings: Homo sapiens, ASPC1; pancreatic adenocarcinoma, ascites, 96 hours, CellTiter Glo; read-out: IC50 AsPC-1
# Method in brief: as §4
# REC-1 = experiment: Cell viability assay (CellTiter Glo), lymphoma cell line REC-1; assay type: cell-based; settings: Homo sapiens, Rec1, 96 hours
# Protocol: as §1, §2
# MCF-10A = experiment: Cell viability assay (CellTiter Glo), non-tumorigenic breast epithelial cell line MCF-10A; assay type: cell-based; settings: Homo sapiens, 96 hours
# Method in brief: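 Non-tumorigenic breast epithelial MCF-10A line, exposed for 96 hours to compound (top concentration up to 30 μM, 3-fold steps, duplicates, final DMSO 0.25% or less). ATP luminescence (CellTiter Glo) normalised to DMSO controls yields IC50, relative IC50 or % top inhibition; paclitaxel served as cytotoxic control.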
# [2] = Pharmacokinetic (PK) studies via intravenous infusion, Sprague-Dawley rat; assay type: in vivo; settings: male, plasma, one rat
# Protocol: Test compound dosing solutions were administered via intravenous infusion to Sprague-Dawley male rat.
# Into 50 μL of test compound plasma samples were added 5 μL DMSO then 200 μL of 25 ng/mL internal standard (ITSD) (Verapamil) in MeOH/acetonitrile (1:1, v/v). […] The limit of quantification (LOQ) was 1 ng/mL.
# The lower limit of quantification was 1-10 ng. A typical HPLC gradient table is described below: […]
# The PK profiles of compound 24 and compound 28 are shown below. […] The volume of injection via intravenous infusion route was adjusted for a dose of 2, 4 and 8 mg/kg. […] The limit of quantification was 1 ng/mL.
smiles,measurement,setting,value
COC(=O)[C@H]1Cc2c([nH]c3ccccc23)[C@H](c2ccc(S(=O)(=O)N[C@]34C[C@H]5C[C@H](C[C@H](C5)C3)C4)cc2)N1C(=O)CCl [Example 24],IC50,SK-OV-3,17 nM
same,IC50,HCC1954,39 nM
same,IC50,MV-4-1,21 nM
same,IC50,MiaPaCa-2,2 nM
same,IC50,HL-60,16 nM
same,IC50,HT-1080 luc2,15 nM
same,"exposure (Cmax, AUC) compared with K601 (RSL3)",[1],higher exposure
same,IC50,Huh7,22 nM
same,IC50,HT29,87 nM
same,IC50,H1299,3 nM
same,IC50,H2228,18 nM
same,IC50,SJSA-1,13 nM
same,IC50,SW480,167 nM
same,IC50,MDA-MB-435S,4 nM
same,IC50,PANC1,19 nM
same,IC50,Kasumi-1,88 nM
same,IC50,143B,4 nM
same,concentration at 0.5 h,in vivo,332 ng/mL
same,concentration at 1 h,in vivo,355 ng/mL
same,concentration at 2 h,in vivo,50.5 ng/mL
same,concentration at 4 h,in vivo,3.41 ng/mL
same,concentration at 0.5 h,in vivo; Mean,464 ng/mL
same,concentration at 1 h,in vivo; Mean,317 ng/mL
same,concentration at 2 h,in vivo; Mean,44.5 ng/mL
same,concentration at 4 h,in vivo; Mean,4.56 ng/mL
same,IC50,Raji,9 nM
same,IC50,AsPC-1,19 nM
same,IC50,REC-1,33 nM
same,IC50,MCF-10A,410 nM
same,concentration at 1.0167 hr,[2]; 1 hour-IV infusion 2 mg/kg,51.7 ng/mL
same,concentration at 1.0833 hr,[2]; 1 hour-IV infusion 2 mg/kg,14.1 ng/mL
same,concentration at 1.25 hr,[2]; 1 hour-IV infusion 2 mg/kg,4.95 ng/mL
same,concentration at 1.5 h,[2]; 1 hour-IV infusion 2 mg/kg,2.18 ng/mL
same,concentration at 1.0167 hr,[2]; 1 hour-IV infusion 4 mg/kg,159 ng/mL
same,concentration at 1.0833 hr,[2]; 1 hour-IV infusion 4 mg/kg,36.4 ng/mL
same,concentration at 1.25 hr,[2]; 1 hour-IV infusion 4 mg/kg,13.8 ng/mL
same,concentration at 1.5 h,[2]; 1 hour-IV infusion 4 mg/kg,5.07 ng/mL
same,concentration at 2 h,[2]; 1 hour-IV infusion 4 mg/kg,2.62 ng/mL
same,concentration at 1.0167 hr,[2]; 1 hour-IV infusion 8 mg/kg,259 ng/mL
same,concentration at 1.0833 hr,[2]; 1 hour-IV infusion 8 mg/kg,97.5 ng/mL
same,concentration at 1.25 hr,[2]; 1 hour-IV infusion 8 mg/kg,34 ng/mL
same,concentration at 1.5 h,[2]; 1 hour-IV infusion 8 mg/kg,17.3 ng/mL
same,concentration at 2 h,[2]; 1 hour-IV infusion 8 mg/kg,6.52 ng/mL
same,concentration at 3 h,"[2]; 1 hour-IV infusion 8 mg/kg, 3 hr",2.92 ng/mL
